# Laboratory results reported in patent US11634466B2, “Musclin peptides and methods of use thereof” (UNIVERSITY OF IOWA RESEARCH FOUNDATION, priority 2016, dated 2023).
# Columns and labels:
# [1] = Plasma musclin level by custom ELISA after osmotic pump infusion of musclin; format: in vivo; conditions: WT mice, musclin 1 ng/g/h i.p. by osmotic pump for 7 d
# Description: Whole body composition was obtained by time-domain nuclear magnetic resonance under isoflurane anesthesia (Bruker Minispec; Billerica, Mass.). Osmotic pumps: Osmotic pumps (model 1004, 100 μl volume, 0.11 μl/hr release rate, 28 days duration, Alzet Durect, Cupertino, Calif.), loaded with saline vs. 50 μg of mouse musclin peptide (SFSGFGSPLDRLSAG SVEHRGKQRKAVDHSKKR (SEQ ID NO: 4), corresponding to amino acids 80-112, Gen Bank ID: AAS87598.1, synthesized by Biosynthesis, Lewisville, Tex.) were surgically implanted within the peritoneal cavity of mice under sterile conditions and general anesthesia. Mice recovered for 7 days before exercise testing was performed.
# Terminal blood collection was performed by direct cardiac puncture.
# 96-well ELISA Maxisorp plates (Nunc) were coated with custom rabbit anti-musclin IgG (Anaspec) at 1 μg/well in BupH carbonate-bicarbonate buffer, pH 9.4 (Thermo Scientific) at 4° C. overnight. On the next day plates were washed with TBS/0.05% Tween 20 and blocked with 5% BSA/TBS for 1 hr at room temperature. Synthetic musclin peptide was used as a standard (NH2-sfsgfgspldrlsagsvehrgkqrkavdhskkr-COOH (SEQ ID NO: 28), corresponding to amino acids 80-112, Gen Bank ID: AAS87598.1, synthesized by Biosynthesis, Lewisville, Tex.). […] Fluorescence was detected at 325/420 nm.
# [2] = tested on: mTORC1 targets (4EBP1, P70S6K); test: Western blot of mTOR targets in skeletal muscle after musclin infusion; format: in vivo; conditions: WT mice
# Description: Western blotting: Whole cell protein extracts were prepared by homogenizing skeletal muscle tissue in NaCl 150 mM, Tris-HCl 50 mM (pH 7.8), supplemented with 1.5% Triton X-100, protease and phosphatase inhibitors (Roche). Nuclear extracts were obtained using the Subcellular Protein Fractionation Kit for Tissues (Thermo Scientific).
# Electrophoresis was performed on 3-8% gradient Nu-Page Tris-Acetate or 10% Nu-Page Bis-Tris gels and transferred to 0.2 μm Sequi-Blot PVDF membranes (Bio-Rad). The membranes were blotted with total AKT1 and phospho-AKT1([…], T308, Cell Signaling), FOXO1 (Cell Signaling), total OXPHOS (rodent, Abcam), musclin (custom rabbit IgG produced against partial mouse musclin sequence NH2-sfsgfgspldrlsagsvehrgkqrkavdhskkr-COOH (SEQ ID NO: 4), corresponding to amino acids 80-112, Gen Bank ID: AAS87598.1, Anaspec, Fremont, Calif.), and GAPDH (Santa Cruz Biotechnologies) antibodies. Densitometric analysis of western blots was performed using Adobe Photoshop (Adobe Systems, San Jose, Calif.).
# These findings are paralleled by more pure glycolytic fibers and greater fatigability in tibialis anterior (TA) muscles of exercise-trained Ostn-KO vs. WT mice (FIGS. 13A-13C). […] GSK3β phosphorylation is associated with increased autophosphorylation of mTOR at S2481 (FIGS. 14A-14B). Furthermore, consistent with the known activating effect of GSK3β inhibition on mTORC1, we find increased phosphorylation of the mTOR targets 4EBP1, P70S6K and ULK1 in skeletal muscles of trained WT vs. Ostn-KO mice 1 h after last exercise (FIGS. 15A-15B). […] We also find that skeletal muscle autophagy flux 1 h after last exercise is increased in exercise-trained Ostn-KO vs. WT, as reflected in higher LC3A II/I ratio and lower expression of P62 on western blots (FIGS. 16A-16G).
# [3] = musclin 1 ng/g/h i.p. by osmotic pump for 7 d, skeletal muscle western blot, n=3
substance,measurement,setting,value
H-SFSGFGSPLDRLSAGSVEHRGKQRKAVDHSKKR-OH [musclin],plasma level induced by musclin infusion,[1],comparable with that observed after exercise training
same,4EBP1/GAPDH,[2]; [3],1.78±0.05
same,P70S6K/GAPDH,[2]; [3],1.73±0.03
same,p-4EBP1/total 4EBP1,[2]; [3],0.59±0.07
same,p-P70S6K/total P70S6K,[2]; [3],0.32±0.06
same,phosphorylation of mTORC1 targets,[2]; musclin 1 ng/g/h i.p. for 7 d vs. saline-treated mice,greater phosphorylation
